US4736058A, “Prostacyclins and process for production thereof” (Teijin Limited, priority 1983, dated 1988)
Converted amounts (≈) assume the structure as drawn. Like-named read-outs stand apart in the source and are kept apart here.

Columns and labels:
[1] = background; natural prostacyclin under neutral or acidic conditions; cited from earlier work
[2] = background; cited from earlier work
[3] = tested on: platelet aggregation (rabbit platelet-rich plasma, ADP); experiment: in vitro inhibition of ADP-induced platelet aggregation; format: cell-based, rabbit (Japanese domestic white male); details: Oryctolagus cuniculus
Description: (i) Measurement of in vitro inhibitory activity of platelet aggregation
The in vitro platelet aggregation inhibiting activities of 9(0)-methano-Δ^6(9) -prostaglandin I, obtained in Example 3 was examined by using rabbits. Blood was withdrawn from the ear vein of Japanese domestic white male rabbits weighing 2.5 to 3.5 kg. A mixture of a 3.8% trisodium citrate solution and the blood in a ratio of 1:9 was centrifuged at a speed of 1000 rpm for 10 minutes. The upper layer was separated as platelet-rich plasma (PRP). The lower layer was further centrifuged at a speed of […] for 10 minutes. The upper layer was separated as platelet-poor plasma (PPP). The number of platelets was adjusted to 6×10^5 /μl to 7×10^5 /μl by diluting the PRP with PPP. 25 microliters of the test compound prepared as shown below was added in an amount of 250 microliters of PRP after the adjustment, and the mixture was pre-incubated at 37° C. for 2 minutes, and then 10 μM (final) of ADP was added. By using an aggregometer, changes in transmission were recorded.
The test compound was dissolved in ethanol to a concentration of 10 mg/ml. When its activity was measured, it was used after being diluted with phosphate buffer (pH 7.4).
The rate of inhibition of platelet aggregation was determined from the following equation. [formula] To : the transmittance of the system containing the phosphate buffer, T: the transmittance of the system to which the test compound was added.
The minimum concentration of the compound which inhibited more than 50% of platelet aggregation was shown as an IC50 value.

[4] = tested on: epithelial cells of rabbits; experiment: cell protecting action against cell lethal action at pH 3; format: cell-based, rabbit; details: 10^-6 M
[5] = heart rate, intravenous injection in anesthetized rats; format: in vivo, rat (male wister); details: rat, i.v., dosage causing a 10% increase of heart rate
Description: (§1) (ii) Measurement of the hypotensive activity
(§2) The actions of the 9(0)-methano-Δ^6(9) -prostaglandin 1, obtained in Example 3 on the blood pressure and heart rate of rats were examined by intravenous injection under anesthesia.
(§3) Male wister rats weighing about 250 g were used. Urethane (500 mg/kg) and α-chloralose (100 mg/kg) were intraperitoneally administered to the rats. The rats were anesthetized and fixed place.
(§4) The test compound was dissolved in a small amount of ethanol and diluted with 0.05M Tris buffer saline (pH 9) to adjust the final ethanol concentration to not more than 5%. The solution was intravenously injected into the rats through a cathether inserted into the femoral vein.
(§5) The blood pressure of the rats was measured by a pressure transducer through a cathether inserted into the carotid artery of the rats. The heart rate was determined from the blood pressure pulse.
(§6) The action of the test compound on the blood pressure was expressed as the dosage (ED20, μg/kg) of the test compound which caused a 20% lowering of the mean blood pressure before administration of the compound. The action of the test compound on the heart rate was expressed as the dosage (ED10, μg/kg) of the test compound which caused a 10% increase of the heart rate from the heart rate before administration of the test compound.

[6] = hypotensive activity, intravenous injection in anesthetized rats: blood pressure; format: in vivo, rat (male wister); details: rat, i.v., dosage causing a 20% lowering of mean blood pressure
Description: as §1, §2, §3, §4, §5, §6

[7] = rabbit PRP, 10 μM ADP, minimum concentration which inhibited more than 50% of platelet aggregation, read-out: platelet aggregation inhibiting activity IC50

Row | SMILES | chemical stability, in words [1] | action-selectivity, in words [2] | biological activity relative to natural prostacyclin, in words [2] | IC50 ([3]; Platelet, rabbits, induced by ADP, read-out: inhibition of platelet aggregation IC50) [ng/mL] | IC50 [3, 7] [ng/mL] | cell protecting action [4] | increase of heart rate ED10 [5] [µg/kg] | ED20 [6] [µg/kg]
1 | CCCCC[C@H](O)/C=C/[C@@H]1[C@H]2C/C(=C\CCCC(=O)O)C[C@H]2C[C@H]1O [6,9-(0)-methanoprostacyclin] | able to satisfy the chemical stableness to perfection | not enough specific in action-selectivity | inferior to natural prostacyclin in biological activity |  |  |  |  | 
2 | CCCCC[C@H](O)/C=C/[C@@H]1[C@H]2CC(CCCCC(=O)O)=C[C@H]2C[C@H]1O [9(0)-methano-Δ^6(9) -prostaglandin I1] |  |  |  | 5.4 (≈ 0.0154 µM) | 5.4 (≈ 0.0154 µM) | has a cell protecting action | > 30 | 1.7
3 | CCCCC[C@H](O)/C=C/[C@@H]1[C@H]2C/C(=C/CCCC(=O)O)O[C@H]2C[C@H]1O [PGI2] | apt to be appreciably hydrolyzed |  |  |  | 1.6 (≈ 0.00454 µM) |  | > 10 | 0.068
